Data reported in PubChem BioAssay (NCI).
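Where inhibition never reached the appropriate level, the endpoint shown equals the highest concentration tested. Otherwise, values were interpolated linearly from a five-concentration, 48-hour dose response in 96-well plates. The concentration for full growth arrest is given as TGI.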

Experiments:
Experiment in all cases: DTP human tumour cell line panel, 48 h
RXF 393 renal = tested on: RXF 393 renal
UACC-62 melanoma = tested on: UACC-62 melanoma
OVCAR-8 ovarian = tested on: OVCAR-8 ovarian
DU-145 prostate = tested on: DU-145 prostate
PC-3 prostate = tested on: PC-3 prostate
UACC-257 melanoma = tested on: UACC-257 melanoma
TK-10 renal = tested on: TK-10 renal
SK-MEL-5 melanoma = tested on: SK-MEL-5 melanoma
SNB-19 CNS = tested on: SNB-19 CNS
SK-MEL-28 melanoma = tested on: SK-MEL-28 melanoma

Compound | TGI (RXF 393 renal) [µM] | TGI (UACC-62 melanoma) [µM] | TGI (OVCAR-8 ovarian) [µM] | TGI (DU-145 prostate) [µM] | TGI (PC-3 prostate) [µM] | TGI (UACC-257 melanoma) [µM] | TGI (TK-10 renal) [µM] | TGI (SK-MEL-5 melanoma) [µM] | TGI (SNB-19 CNS) [µM] | TGI (SK-MEL-28 melanoma) [µM]
Cc1cc(C)nc(NS(=O)(=O)c2ccc(NC(=O)c3cccc4c(NNc5ccc(S(=O)(=O)N=C(N)N)cc5)c5ccccc5nc34)cc2)n1 | > 50 | > 50 | > 50 | > 50 | > 50 | > 50 | > 50 | > 50 | > 50 | –
COc1ccc([C@H]2C=[N+]([O-])O[C@H](OC3CCCC3)[C@@H]2OC(C)=O)cc1OC | 29.8 | 77.7 | 62.2 | 89.6 | > 100 | 54.3 | 68.2 | 29.6 | > 100 | 44.2
CCOC(=O)C1CCC(=O)N1C(=O)c1ccccc1Cl (centres undefined) | > 100 | 95.5 | > 100 | > 100 | > 100 | > 100 | > 100 | > 100 | > 100 | > 100
COC1C(O)C(O[C@H]2CC[C@@]3(C)C(CC[C@@H]4[C@@H]3CC[C@]3(C)[C@@H](C(C)OC5OC(CO)C(O)C(O)C5O)CC[C@]43O)C2)OC(C)C1OC1OC(CO)C(O)C(O)C1O (some centres undefined) | > 100 | > 100 | > 100 | > 100 | > 100 | > 100 | > 100 | > 100 | > 100 | > 100
CCOC(=O)C1=CC(C)(C(=O)OCC)Nc2c(nc(N)[nH]c2=O)N1 (centres undefined) | > 10 | – | > 10 | > 10 | > 10 | > 10 | > 10 | > 10 | > 10 | > 10
Cc1cc(C)c(/C=C(\C(=C/c2c(C)cc(C)cc2C)[N+](=O)[O-])[N+](=O)[O-])c(C)c1 | 90.4 | > 100 | – | > 100 | > 100 | > 100 | > 100 | > 100 | > 100 | > 100
C/C(=C\CO)CC/C=C(\C)CNc1ccc([N+](=O)[O-])cc1 | > 100 | > 100 | > 100 | > 100 | 66.2 | 76.2 | 46.7 | 25.6 | > 100 | > 100
CC1(C)CC(C#Cc2ccccc2)CC(C)(C)N1O | 63.4 | 42.5 | 64 | 41.9 | 29.4 | 33 | 40.5 | 30.7 | > 100 | 32.8
O=[N+]([O-])c1cc(Cl)ccc1Sc1ccccc1 | > 100 | > 100 | > 100 | > 100 | > 100 | > 100 | > 100 | > 100 | > 100 | > 100
COc1cccc2c1OCC1Cc3ccccc3OC21 (centres undefined) | – | > 100 | > 100 | > 100 | > 100 | 65.3 | 72.8 | 30.8 | – | –
